SMILES strings stand for the structures. Where two headings read alike, the source gives them in different places.

The text below walks through data of patent US20050288307A1, “Anti-viral compounds” (priority 2002, published 2005).

Data set [1] concerns the target T1, CDK2/Cyclin E (Homo sapiens, UniProt P24941).
T1 construct: His; made in house; host or cells: Sf9 insect cells (baculovirus)
The data set can be described thus: CDK2/cyclin E kinase assay (GST-Rb phosphorylation).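 Also: enzyme source: His-tagged CDK2/cyclin E complex co-expressed recombinantly in Sf9 insect cells using baculovirus constructs.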 In kind it is biochemical. The following applies: read-out: Average IC50 CDK2 cyclin E1.
Experimental: His-tagged CDK2/Cyclin E and CDK1/Cyclin B may be co-expressed and PKCα singularly expressed in Sf 9 insect cells infected with the appropriate baculovirus constructs. The cells are harvested two days after infection by low speed centrifugation and the proteins purified from the insect cell pellets by Metal-chelate chromatography. Briefly, the insect cell pellet is lysed in Buffer A (10 mM Tris-HCl, pH 8.0, 150 mM NaCl, 0.02% NP40 and 5 mM β-marcaptoethanol, 1 mM NaF. 1 mM Na3VO4 and Protease Inhibitors Coctail (Sigma) containing AEBSF, pepstatin A, E 64, bestatin, leupeptin) by sonication. The soluble fraction is cleared by centrifugation and loaded onto Ni-NTA-Agarose (Quiagen). Non bound proteins were washed off with 300 mM NaCl, 5-15 mM Imidazole in Buffer A and the bound proteins eluted with 250 mM Imidazole in Buffer A. The purified proteins are extensively dialyzed against Storage buffer (20 mM HEPES pH 7.4, 50 mM NaCl, 2 mM DTT, 1 mM EDTA, 1 mM EGTA, 0.02% NP40, 10% v/v Glycerol) aliquoted and stored at −70° C.

The target of data set [2] is CDK2/cyclin A (Homo sapiens, UniProt P24941). The data set is described as follows: CDK2/cyclin A kinase assay.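 Also: Read-out is incorporated radioactivity retained on P81 filter plates and quantified by scintillation counting.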 In kind it is biochemical. The conditions noted are these: Table 3; read-out: Average IC50 CDK2 cyclin A2.
Experimental: Reactions were stopped on ice, followed by filtration through p81 filterplates (Whatman Polyfiltronics, Kent, UK). After washing 3 times with 75 mM orthophosphoric acid, plates were dried, scintillant added and incorporated radioactivity measured in a scintillation counter (TopCount, Packard Instruments, Pangboume, Berks, UK).
Data set [3] has as its target CDK4/Cyclin D1 (Homo sapiens, UniProt P11802). The data set can be described thus: CDK4/cyclin D1 kinase assay (GST-Rb phosphorylation). In kind it is biochemical. The following applies: read-out: Average IC50 CDK4 cyclin D1.
Data set [4] has as its target CDK7/cyclin H (Homo sapiens, UniProt P50613). The data set is described as follows: CDK7 assay (CTD peptide substrate). In kind it is biochemical. The conditions noted are these: read-out: Average IC50 CDK7 cyclin H. The gist of the method:
(§1)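 Recombinant human CDK7/cyclin H or CDK9/cyclin T1 with biotinylated CTD peptide, 45 min at 30 °C, pH 7.2 MOPS buffer, 15 mM MgCl2, 100 μM ATP with trace [γ-32P]ATP. Avidin capture on P81 filters, phosphoric acid washes, 32P incorporation by scintillation counting.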

For data set [5], the target named is CDK9/cyclin T1 (Homo sapiens, UniProt P50750). The data set can be described thus: CDK9 assay (CTD peptide substrate). The following applies: read-out: Average IC50 CDK9 cyclin T1. In kind it is biochemical. In short, it runs like this: as §1
CDK9/cyclin T1, sequence (P50750 whole entry): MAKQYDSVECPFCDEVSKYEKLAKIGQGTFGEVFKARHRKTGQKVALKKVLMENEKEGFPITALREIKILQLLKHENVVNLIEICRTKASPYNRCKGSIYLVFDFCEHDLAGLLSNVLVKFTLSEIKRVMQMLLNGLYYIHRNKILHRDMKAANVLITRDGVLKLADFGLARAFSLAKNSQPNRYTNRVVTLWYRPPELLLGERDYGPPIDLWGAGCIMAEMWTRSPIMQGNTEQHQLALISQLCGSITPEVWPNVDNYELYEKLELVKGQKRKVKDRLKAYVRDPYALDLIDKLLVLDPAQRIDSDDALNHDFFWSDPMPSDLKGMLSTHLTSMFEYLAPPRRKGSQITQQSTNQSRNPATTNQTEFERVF
CDK9/cyclin T1, sequence (O60563 whole entry partner): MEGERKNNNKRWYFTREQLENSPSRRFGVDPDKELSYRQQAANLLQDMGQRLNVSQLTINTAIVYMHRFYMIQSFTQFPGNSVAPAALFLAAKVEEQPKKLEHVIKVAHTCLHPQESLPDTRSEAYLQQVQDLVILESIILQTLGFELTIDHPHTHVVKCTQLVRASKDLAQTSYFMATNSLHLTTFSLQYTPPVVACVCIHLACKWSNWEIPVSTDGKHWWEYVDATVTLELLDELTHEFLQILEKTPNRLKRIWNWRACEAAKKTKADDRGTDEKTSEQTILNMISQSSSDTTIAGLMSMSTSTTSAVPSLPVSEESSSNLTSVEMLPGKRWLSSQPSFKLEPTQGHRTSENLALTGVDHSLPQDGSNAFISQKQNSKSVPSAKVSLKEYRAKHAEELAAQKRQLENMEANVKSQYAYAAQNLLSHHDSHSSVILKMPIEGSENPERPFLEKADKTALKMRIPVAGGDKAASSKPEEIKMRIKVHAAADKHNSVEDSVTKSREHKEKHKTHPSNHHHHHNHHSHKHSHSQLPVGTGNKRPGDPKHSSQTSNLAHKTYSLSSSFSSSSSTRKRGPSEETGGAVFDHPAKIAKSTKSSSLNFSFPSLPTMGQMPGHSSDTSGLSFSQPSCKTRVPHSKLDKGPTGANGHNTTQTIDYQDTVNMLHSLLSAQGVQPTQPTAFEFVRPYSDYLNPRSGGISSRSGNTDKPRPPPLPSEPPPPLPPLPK
For data set [6], the target named is Akt/PKB (Homo sapiens, UniProt P31749). The data set is described as follows: Kinase specificity panel: Akt/PKB. In kind it is biochemical. The conditions noted are these: Table 2.
Data set [7] concerns CaMKII. It is filed as biochemical. The conditions noted are these: Table 2.
For data set [8], the target named is ERK2 (Homo sapiens, UniProt P28482). The data set can be described thus: Kinase specificity panel: ERK2. In kind it is biochemical. The conditions noted are these: Table 2.
ERK2, sequence (P28482 whole entry, species assumed): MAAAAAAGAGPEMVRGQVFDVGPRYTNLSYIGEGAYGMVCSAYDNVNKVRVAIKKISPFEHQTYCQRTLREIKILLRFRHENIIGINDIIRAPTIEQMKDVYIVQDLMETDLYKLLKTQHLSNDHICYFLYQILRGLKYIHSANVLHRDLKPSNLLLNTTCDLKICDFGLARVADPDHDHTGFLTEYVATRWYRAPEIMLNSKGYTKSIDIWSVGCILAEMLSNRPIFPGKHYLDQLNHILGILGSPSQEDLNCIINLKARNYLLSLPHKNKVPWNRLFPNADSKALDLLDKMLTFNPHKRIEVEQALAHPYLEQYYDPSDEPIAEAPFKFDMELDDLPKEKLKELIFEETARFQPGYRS
The target in data set [9] is T2, PKC (Homo sapiens, UniProt P17252).
T2 construct: 6xHis (C); made in house; host or cells: Sf9 insect cells (baculovirus)
The data set can be described thus: PKC kinase assay (Histone 3 phosphorylation). It is filed as biochemical. The following applies: Table 2. The procedure: PKCα kinase activity may be measured by the incorporation of radio-labeled phosphate in Histone 3, as described. The reaction mixture (total volume 65 μl) consist of 50 mM Tris-HCl, 1 mM Calcium acetate, 3 mM DTT, 0.03 mg/ml Phosphatidylserine, 2.4 μg/ml PMA, 0.04% NP40, 12 mM Mg/Cl, purified PKCα-100 ng, Histone 3, 0.2 mg/ml, 100 μM ATP, 0.2 μCi [γ-^32P]-ATP. The reaction is carried over 15 min at 37° C. in microplate shaker and is stopped by adding 10 μl 75 mM orthophosphoric acid and placing the plate on ice. 50 μl of the reaction mixture is transferred onto P81 filterplate and after washing off the free radioactive phosphate (3 times with 200 μl 75 mM orthophosphoric acid per well) 50 μl of scintillation liquid (Microscint 40) were added to each well and the radioactivity is measured on Scintillation counter (Topcount, HP).

Data set [10] concerns the target SAPK2a (Homo sapiens, UniProt Q16539). The data set is described as follows: Kinase specificity panel: SAPK2a. In kind it is biochemical. The following applies: Table 2.
Data set [11] has as its target CDK1/Cyclin B (Homo sapiens, UniProt P06493). The data set is described as follows: CDK1/cyclin B kinase assay (GST-Rb phosphorylation).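 Also: Enzyme: His-tagged CDK1/Cyclin B co-expressed in baculovirus-infected Sf9 insect cells, purified via metal-chelate chromatography.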
Data set [12] concerns HIV-1RoJo/PBMC. The data set can be described thus: Anti-HIV efficacy in fresh human PBMCs, strain RoJo. It is filed as cell-based. On the procedure: (§2) Fresh PBMCs, seronegative for HIV and HBV, were isolated from screened donors (Interstate Blood Bank, Inc. Memphis, Tenn.). Cells were pelleted/washed 2-3 times by low speed centrifugation and re-suspension in PBS to remove contaminating platelets. […] Banded PBMCs were gently aspirated from the resulting interface and subsequently washed with PBS by low speed centrifugation. […] The cells were allowed to incubate at 37° C. […] IL-2 is included in the culture medium to maintain the cell division initiated by the PHA mitogenic stimulation. PBMCs were maintained in this with bi-weekly medium changes until used in the assay protocol. Cells were kept in culture for a maximum of two weeks before being deemed too old for use in assays and discarded. Monocytes were depleted from the culture as the result of adherence to the tissue culture flask.
(§3) Tritiated thymidine triphosphate (^3H-TTP, 80 Ci/mmol, NEN) was received in 1:1 dH2O:Ethanol at 1 mCi/mL. Poly rA:oligo dT template:primer (Pharmacia) was prepared as a stock solution, followed by aliquoting and storage at −20° C. The RT reaction buffer was prepared fresh on a daily basis. The final reaction mixture was prepared by combining ^3H-TTP, dH2O, poly rA:oligo dT stock and reaction buffer. This reaction mixture was placed in a round bottom microtiter plate and supernatant containing virus was added and mixed. The plate was incubated at 37° C. for 60 minutes. Following incubation, the reaction volume was spotted onto DE81 filter-mats (Wallac), in a sodium phosphate buffer or 2×SSC (Life Technologies). Next they were washed in distilled water, in 70% ethanol, and then dried. Incorporated radioactivity (counts per minute, CPM) was quantified using standard liquid scintillation techniques.

Data set [13] deals with HIV-1WeJo/PBMC. The data set is described as follows: Anti-HIV efficacy in fresh human PBMCs, strain WeJo. It is filed as cell-based. On the procedure: as §2, §3
Data set [14] has as its system HIV-1. The data set can be described thus: Anti-viral cell-based assays. The following applies: result in words.
Data set [15] can be described thus: Compound cytotoxicity in PBMC assay plates (MTS cell viability). The conditions noted are these: human, TC50 (concentration decreasing cell viability by 50%).
Where [16] appears, read: Human immunodeficiency virus 1, PBMC, read-out: IC50 (concentration inhibiting virus replication by 50%).
Where [17] appears, read: Human immunodeficiency virus 1, PBMC, read-out: IC90 (concentration inhibiting virus replication by 90%).
Setting [18] is: Human immunodeficiency virus 1, read-out: IC50 (concentration inhibiting virus replication by 50%), HIV-1RoJo/PBMC.
The mark [19] stands for this setting: Human immunodeficiency virus 1, read-out: IC90 (concentration inhibiting virus replication by 90%), HIV-1RoJo/PBMC.
[20] abbreviates: Human immunodeficiency virus 1, read-out: IC50 (concentration inhibiting virus replication by 50%), HIV-1WeJo/PBMC.
[21] abbreviates: Human immunodeficiency virus 1, read-out: IC90 (concentration inhibiting virus replication by 90%), HIV-1WeJo/PBMC.

CDK7/cyclin H, sequence (P50613 whole entry): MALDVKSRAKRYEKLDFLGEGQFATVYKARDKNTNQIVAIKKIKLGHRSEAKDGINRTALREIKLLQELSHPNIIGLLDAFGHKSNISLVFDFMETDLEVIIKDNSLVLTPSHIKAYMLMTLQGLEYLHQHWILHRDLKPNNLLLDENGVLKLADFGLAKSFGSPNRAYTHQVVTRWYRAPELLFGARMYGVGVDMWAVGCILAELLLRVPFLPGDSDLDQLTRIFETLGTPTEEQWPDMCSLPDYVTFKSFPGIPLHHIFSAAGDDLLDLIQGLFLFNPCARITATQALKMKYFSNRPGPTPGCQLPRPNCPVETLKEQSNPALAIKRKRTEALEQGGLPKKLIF
CDK7/cyclin H, sequence (P51946 whole entry partner): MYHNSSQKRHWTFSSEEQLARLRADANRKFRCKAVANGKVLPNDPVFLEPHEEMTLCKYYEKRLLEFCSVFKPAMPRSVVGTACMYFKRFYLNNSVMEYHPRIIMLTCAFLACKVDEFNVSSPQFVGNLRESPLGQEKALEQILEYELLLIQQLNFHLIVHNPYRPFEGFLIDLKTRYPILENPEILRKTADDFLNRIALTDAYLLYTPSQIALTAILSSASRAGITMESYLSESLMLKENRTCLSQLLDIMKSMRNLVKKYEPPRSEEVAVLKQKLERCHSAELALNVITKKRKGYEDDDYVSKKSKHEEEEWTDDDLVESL
CDK1/Cyclin B, sequence (P06493 whole entry, species assumed): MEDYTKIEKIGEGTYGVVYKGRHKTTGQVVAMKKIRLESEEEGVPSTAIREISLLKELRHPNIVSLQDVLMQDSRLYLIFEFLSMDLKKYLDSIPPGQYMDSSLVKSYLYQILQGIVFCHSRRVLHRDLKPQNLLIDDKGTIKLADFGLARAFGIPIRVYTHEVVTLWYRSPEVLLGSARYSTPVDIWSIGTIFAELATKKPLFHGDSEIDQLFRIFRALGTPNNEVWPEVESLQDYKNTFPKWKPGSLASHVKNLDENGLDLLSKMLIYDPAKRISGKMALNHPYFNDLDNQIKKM
CDK1/Cyclin B, sequence (P14635 whole entry partner, species assumed): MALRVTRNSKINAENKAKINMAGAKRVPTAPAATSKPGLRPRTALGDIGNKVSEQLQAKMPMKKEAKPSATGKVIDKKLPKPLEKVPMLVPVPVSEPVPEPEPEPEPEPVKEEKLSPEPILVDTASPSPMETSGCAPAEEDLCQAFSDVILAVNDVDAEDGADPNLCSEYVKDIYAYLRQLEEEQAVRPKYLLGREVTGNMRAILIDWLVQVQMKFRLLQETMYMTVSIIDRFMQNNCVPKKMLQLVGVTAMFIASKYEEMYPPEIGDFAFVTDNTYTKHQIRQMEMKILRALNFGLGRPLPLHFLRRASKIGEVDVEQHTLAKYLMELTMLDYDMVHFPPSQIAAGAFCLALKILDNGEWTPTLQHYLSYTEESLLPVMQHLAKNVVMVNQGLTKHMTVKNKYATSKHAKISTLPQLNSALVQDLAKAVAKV
SAPK2a, sequence (Q16539 whole entry, species assumed): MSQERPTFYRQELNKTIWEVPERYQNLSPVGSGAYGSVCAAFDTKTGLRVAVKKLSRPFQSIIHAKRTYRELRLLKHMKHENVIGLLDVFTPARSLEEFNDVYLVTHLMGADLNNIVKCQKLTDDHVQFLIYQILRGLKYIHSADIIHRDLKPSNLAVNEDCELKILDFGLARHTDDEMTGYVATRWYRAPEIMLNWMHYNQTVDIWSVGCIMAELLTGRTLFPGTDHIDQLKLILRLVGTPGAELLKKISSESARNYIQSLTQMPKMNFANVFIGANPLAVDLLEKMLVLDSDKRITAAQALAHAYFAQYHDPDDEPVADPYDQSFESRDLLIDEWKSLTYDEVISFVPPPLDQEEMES
CDK4/Cyclin D1, sequence (P11802 whole entry, species assumed): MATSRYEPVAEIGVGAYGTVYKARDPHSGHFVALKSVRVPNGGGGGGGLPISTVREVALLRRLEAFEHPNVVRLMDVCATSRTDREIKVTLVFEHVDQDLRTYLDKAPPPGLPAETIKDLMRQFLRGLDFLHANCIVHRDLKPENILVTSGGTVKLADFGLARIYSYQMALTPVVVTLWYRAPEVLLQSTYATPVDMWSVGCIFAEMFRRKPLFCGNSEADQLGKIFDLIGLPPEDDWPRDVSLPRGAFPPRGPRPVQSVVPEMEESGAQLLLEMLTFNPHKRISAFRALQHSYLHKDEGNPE
CDK4/Cyclin D1, sequence (P24385 whole entry partner, species assumed): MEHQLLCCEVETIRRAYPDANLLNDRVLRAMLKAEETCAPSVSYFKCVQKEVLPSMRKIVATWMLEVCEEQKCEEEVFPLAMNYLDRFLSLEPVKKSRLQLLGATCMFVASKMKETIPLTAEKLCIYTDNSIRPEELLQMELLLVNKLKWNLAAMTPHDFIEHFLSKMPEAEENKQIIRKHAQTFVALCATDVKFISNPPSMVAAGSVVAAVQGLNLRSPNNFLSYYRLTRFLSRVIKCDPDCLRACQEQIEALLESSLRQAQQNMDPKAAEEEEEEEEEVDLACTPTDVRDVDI

For `Cc1nc(N)sc1-c1ccnc(Nc2cccc(O)c2)n1` [Compound 116, 3-[4-(2-Amino-4-methyl-thiazol-5-yl)-pyrimidin-2-ylamino]-phenol], the IC50 in data set [1] (Table 2) worked out at 0.11 µM; in data set [2] it was 0.18 µM; in data set [3] (Table 2), 0.46 µM; in [4] (Table 2) it was 0.99 µM; in [5] (Table 2) it was 0.13 µM; in data set [6] it was 53 µM. Moreover, the IC50 in data set [7] is 7.7 µM; in [8], 15 µM; in data set [9], 33 µM; in data set [10], 29 µM; in data set [11], 0.58 µM.

For the compound `Cc1nc(N)sc1-c1ccnc(Nc2cccc([N+](=O)[O-])c2)n1` [Compound 105, [4-(2-Amino-4-methyl-thiazol-5-yl)-pyrimidin-2-yl]-(3-nitro-phenyl)-amine], the IC50 in data set [7] is above 100 µM; in data set [12] (setting [16]), 0.067 µM; in data set [13] (setting [16]), 0.005 µM. The IC90 in [12] (setting [17]) was determined as 0.35 µM; in data set [13] (setting [17]), 0.014 µM. The “anti-viral effectiveness as demonstrated by cell-based assays” value (shortened to “anti-viral effectiveness as demonstrated”) in data set [14] is recorded as “particularly effective anti-viral agents”. The CC50 at 7 days was 1.6 µM in data set [15] (HIV-1RoJo/PBMC) and 0.2 µM in data set [15] (HIV-1WeJo/PBMC).

Turning to `Cc1nc(C)c(-c2ccnc(Nc3cccc(C#N)c3)n2)s1` [Compound 36, 3-[4-(2,4-Dimethyl-thiazol-5-yl)-pyrimidin-2-ylamino]-benzonitrile], the IC50 in [1] (Table 2) was 0.39 µM; in [1] (Table 3), 0.39 µM; in data set [2] it was 0.16 µM; in data set [3] (Table 2), 2.9 µM; in data set [4] (Table 2), 1.7 µM; in data set [5] (Table 2), 1 µM. Further, the IC50 in data set [6] was above 50 µM; in [7] it was above 50 µM; in data set [8], above 50 µM; in data set [9], above 50 µM; in data set [10], above 50 µM; in data set [11] it was 2.5 µM.

As to `COc1ccc(Nc2nccc(-c3sc(C)nc3C)n2)cc1` [Compound 26, [4-(2,4-Dimethyl-thiazol-5-yl)-pyrimidin-2-yl]-(4-methoxy-phenyl)-amine], the IC50 was 2.4 µM in data set [3] (Table 2); above 50 µM in data set [6]; above 50 µM in [7]; above 50 µM in data set [8]; above 50 µM in data set [9]; 45 µM in data set [10]. Moreover, the IC50 in data set [11] is 9 µM.

In the case of `Cc1nc(C)c(-c2ccnc(Nc3cccc([N+](=O)[O-])c3)n2)s1` [Compound 5, [4-(2,4-Dimethyl-thiazol-5-yl)-pyrimidin-2-yl]-(3-nitro-phenyl)-amine], the IC50 in data set [4] (Table 2) was 13 µM; in [6], above 50 µM; in data set [7], above 50 µM; in [8] it was 40 µM; in data set [9], 35 µM; in data set [10], 40 µM. Further, the IC50 in [11] worked out at 17 µM.

Consider `Cc1nc(C)c(-c2ccnc(Nc3ccc(N(C)C)c(Cl)c3)n2)s1` [Compound 128, 2-Chloro-N^4-[4-(2,4-dimethyl-thiazol-5-yl)-pyrimidin-2-yl]-N^1,N^1-dimethyl-benzene-1,4-diamine], for which the IC50 amounted to 6.3 µM in data set [4] (Table 3), 0.45 µM in [5] (Table 3), 0.74 µM in data set [12] (setting [18]) and 0.86 µM in data set [13] (setting [20]). The IC90 amounted to 2.7 µM in data set [12] (setting [19]) and 2 µM in data set [13] (setting [21]). Besides, the “anti-viral effectiveness as demonstrated” value in [14] was “particularly effective anti-viral agents”. Also, the values for the CC50 at 7 days in data set [15] (HIV-1RoJo/PBMC) and in data set [15] (HIV-1WeJo/PBMC) were 4.3 µM and above 100 µM, respectively.

`Cc1nc(C)c(-c2ccnc(Nc3ccc(I)cc3)n2)s1` [Compound 21, [4-(2,4-Dimethyl-thiazol-5-yl)-pyrimidin-2-yl]-(4-iodo-phenyl)-amine] showed a melting point of 171 to 173 °C. The “TI (therapeutic index: TC50/IC50)” value in data set [12] (HIV-1RoJo/PBMC) is given as 495. Further, the IC50 in data set [12] (setting [18]) amounted to 0.062 µM. For the same compound, the IC90 in data set [12] (setting [19]) was 0.1 µM. The “TI (therapeutic index: TC50/IC50)” value in [13] (HIV-1WeJo/PBMC) came out at 2190. Besides, the IC50 in data set [13] (setting [20]) turned out to be 0.029 µM. Further, in data set [13] (setting [21]), the IC90 is 0.048 µM. Moreover, in data set [14], the “anti-viral effectiveness as demonstrated” value was “particularly effective anti-viral agents”. The compound also returned a CC50 at 7 days in data set [15] (HIV-1RoJo/PBMC) of 31 µM. In data set [15] (HIV-1WeJo/PBMC), the midpoint of cytotoxicity, the CC50 at 7 days, lay at 64 µM.

`Cc1nc(C)c(-c2ccnc(Nc3ccc(C(F)(F)F)cc3)n2)s1` [Compound 15, [4-(2,4-Dimethyl-thiazol-5-yl)-pyrimidin-2-yl]-(4-trifluoromethyl-phenyl)-amine]: the IC50 in data set [4] (Table 2) is above 100 µM; in [4] (Table 3), above 100 µM; in [6] it was above 50 µM; in data set [7] it was above 50 µM; in data set [8], above 50 µM; in data set [9], above 50 µM. For the same compound, the IC50 in [10] is above 50 µM; in data set [11], 34 µM.

As for `Cc1nc(N)sc1-c1ccnc(Nc2ccc(I)c([N+](=O)[O-])c2)n1` [Compound 117, [4-(2-Amino-4-methyl-thiazol-5-yl)-pyrimidin-2-yl]-(4-iodo-3-nitro-phenyl)-amine], the IC50 in data set [1] (Table 2) was 0.28 µM; in data set [2] it was 1.7 µM; in data set [3] (Table 2), 1.4 µM; in data set [4] (Table 2), 0.36 µM; in data set [5] (Table 2) it was 0.055 µM; in data set [6] it was 70 µM. In addition, the IC50 in data set [7] is above 100 µM; in data set [8] it was above 100 µM; in data set [9], above 100 µM; in data set [10], above 100 µM; in [11], 1.7 µM.

As for `Cc1nc(C)c(-c2ccnc(Nc3ccc(F)cc3F)n2)s1` [Compound 9, (2,4-Difluoro-phenyl)-[4-(2,4-dimethyl-thiazol-5-yl)-pyrimidin-2-yl]-amine], the IC50 in [1] (Table 2) is 6.3 µM; in data set [3] (Table 2), above 50 µM; in data set [3] (Table 3), above 50 µM; in [6], above 50 µM; in data set [7] it was above 50 µM; in [8] it was 55 µM. The IC50 in [9] was found to be 40 µM; in data set [10], 40 µM; in data set [11], 38 µM.

By CC50 is commonly meant the concentration that lowers cell viability or growth by half. A lower CC50 goes with harm at low concentration. In general, melting point refers to the temperature of the solid-liquid transition.
